# Experimental data taken from paper PMC4995097, “Talin-KANK1 interaction controls the recruitment of cortical microtubule stabilizing complexes to focal adhesions” (eLife, 2016).
# Columns and labels:
# [1] = test system: microtubule plus ends in HeLa cells; test: Ratio of microtubule growth rate in the cell center and at the cell edge; assay type: cell-based, human; settings: depletion and rescue, EB3-mRFP
# Protocol: nEB3-mRFP dynamics was recorded by 0.5 s interval time lapse TIRF imaging. Microtubule growth was measured using kymographs obtained from EB3-mRFP time lapse image series, plotted and presented as previously described ([van der Vaart et al., 2013]). Ratio of microtubule growth in cell center to periphery was obtained as values for individual cells. Microtubule growth trajectory angle to the cell edge was manually measured in ImageJ using tracks obtained by maximum intensity projection of EB3-mRFP image series.
# HA-KANK1 = test: Streptavidin pull down of BioGFP-talin1 constructs with HA-KANK1, Western blot; assay type: binding; settings: HEK293T cells
# Text: BioGFP-tagged KANK1 mutants were constructed using PCR and pBioGFP-C1 vector as previously described ([van der Vaart et al., 2013]). Rescue constructs for BioGFP-tagged KANK1 were either based on the version previously described ([van der Vaart et al., 2013]) or a version obtained by PCR-based mutagenesis of the sequence […] to […]. mCherry-tagged paxillin construct was made by replacing GFP from pQC-GPXN ([Bouchet et al., 2011]) by mCherry (pmCherry-C1, Clontech). TagRFP-tagged paxillin construct was made by PCR-based amplification and cloning in pTagRFP-T-C1 (kind gift from Y. Mimori-Kiyosue, Riken Institute, Japan). HA-tagged KANK1 construct was generated by cloning KANK1 coding sequence into pMT2-SM-HA (gift of C. Hoogenraad, Utrecht University, The Netherlands). pLVX-IRES-Neo (pLVIN) vectors was constructed by cloning the IRES-neomycin resistance cassette from the pQCXIN plasmid (Clontech) into the pLVX-IRES-Puro plasmid (Clontech). […]
# Streptavidin-based pull down assays of biotinylated proteins expressed using pBioGFP-C1 constructs transfected in HEK293T cells was performed and analyzed as previously described ([van der Vaart et al., 2013]). […] For RP-nanoLC-MS/MS, samples were resuspended in 10% formic acid (FA) / 5% DMSO and was analyzed using a Proxeon Easy-nLC100 (Thermo Scientific) connected to an Orbitrap Q-Exactive mass spectrometer. […]
substance,measurement,setting,value
GFP-talin1-G1404L: GFP-tagged mouse talin1 with single point mutation G1404L,"microtubule growth, fold slower at cell margin/edge than in cell center",[1],1.5 fold
same,interaction of talin1 constructs with KANK1 (in words),HA-KANK1,abrogated the interaction of full-length talin1 or its R7 fragment with full-length KANK1
